In patent US20260034112A1, “MULTI-CYCLIC IRAK1 AND IRAK4 INHIBITING COMPOUNDS AND USES THEREOF” (CHILDREN'S HOSPITAL MEDICAL CENTER, priority 2022, published 2026):
Read-outs that look alike come from different tables or passages of the source.

Assays:
[1] = tested on: NF-kB activity upon TLR2 stimulation with PAM3CSK4 in THP1-Blue NF-kB SEAP reporter cells; assay: THP1-Blue NF-kB SEAP reporter assay, TLR2 stimulation with PAM3CSK4; assay type: cell-based, human
[2] = tested on: MDS/AML cell lines and patient-derived samples; assay: Clonogenic assay (colony formation in methylcellulose); assay type: cell-based, human; details: for Inhibition of colony formation: MDSL, TF1, AML1714, AML1294, methylcellulose
[3] = Homo sapiens, THP-1, THP1 NF-kB reporter cells, read-out: IC50 vs. Pam3CSK4 (TLR2-mediated NF-kB activation)

IC50 [1, 3] | IC50 ([1]; Homo sapiens, THP-1, Table 1, unit nM, read-out: THP-1 NFkB PAM IC50) | IC50 ([1]; THP1 NF-kB reporter cells, read-out: IC50 vs. Pam3CSK4 (TLR2-mediated NF-kB activation)) | SMILES | Sensitivity of IRAK1KO MDS/AML cells (growth, colony formation) ([2]; IRAK1KO versus WT THP1 and MDSL cells) | Inhibition of colony formation [2] | Suppression of NF-kB signaling through TLR2 ([1]; THP1 NF-kB reporter cells, result in words) | LOG (PAM) ([1]; Table 1, log of PAM IC50)
500 nM |  |  | Cc1cc(-c2nc(C(=O)Nc3cc4oc(N5CCOCC5)nc4nc3N3CC[C@@H](O)C3)co2)ccn1 [CA-4948, emavusertib] | more sensitive | dose-dependent, yet incomplete, inhibition of colony formation |  | 
7.2 nM | 496 nM | 7 nM | CC[C@@H]1[C@H](F)C(=O)N[C@@H]1COc1nccc2cc(C(N)=O)c(OC)cc12 [PF-06650833, Zimlovisertib] |  | inhibition of colony formation by MDSL and TF1 cells but was less effective at suppressing the patient-derived AML samples | fully suppress | 2.70
